Data on 13 compounds can be found in patent US12479858B2, “Macrocyclic compounds as sting agonists and methods and uses thereof” (Lupin Limited, priority 2019, dated 2025).

Converted amounts (≈) assume the structure as drawn. Structures can show the parent of a compound that is named as a salt. Where two headings read alike, the source gives them in different places.

The conditions of series [1]: snar bond, 15-membered ring, (E)-but-2-ene-1,4-diamine 2HCl/DIPEA.
For series [2] the following is noted: the molecule shown is the open-chain precursor; snar bond; 15-membered ring; (E)-but-2-ene-1,4-diamine 2HCl/DIPEA; EtOH/THF 3:1; 46.0 mM; 105.0 °C.
The nature of series [3]: Apparent solubility/extended kinetic solubility by UHPLC. In kind it is physicochemical. Particulars: aqueous buffer, thermodynamic from solid, phosphate buffer, 37° C. As for the experimental part:
Biological Assay—Determination of Apparent Solubility/Extended Kinetic Solubility by UHPLC
Test sample preparation: About 0.5 mg of the test sample was weighed and transferred in duplicate in 1 mL glass inserts of 96 well plates. 5 μL of DMSO and 1 ml of phosphate buffer were added. Allowed for equilibrium in an orbital shaker at 37° C. for 24 hrs. Later, allowed it cool to room temperature and centrifuged the 96 well plate (at 240×10 RPM for 20 min) and supernatant material was taken into collection plate, covered it with the heat resistant aluminum sheet or supernatant material was directly taken into HPLC sample vial.
Injected diluent as blank and linearity solutions in duplicate. Recorded the chromatograms and plotted the calibration curve, concentration (X-axis) versus Area (y-axis). The correlation coefficient for calibration curve should be not less than 0.95. If above criteria passes, then injected the test samples and recorded the chromatograms. In case saturated peaks are observed, then diluted the test sample with diluent as appropriate.
Calculated the slope and intercept of the calibration curve. From the standard curve, determined the solubility of the sample in μM (micromolar).

For a further series, the target named is T1, Human STING (Homo sapiens, UniProt Q86WV6, G230A/H232R/R293Q/R71H).
T1 construct: using human THP1-Blue™ ISG SEAP based reporter cell line (Invivogen); host or cells: THP1-Blue ISG cells (human monocytic THP-1 derived SEAP reporter line)
Description: Stimulation of human STING signaling in THP1 cell line (THP1-Blue ISG SEAP reporter). In kind it is cell-based. To be noted: THP1-Blue ISG cells, SEAP activity, 18-20 hours. As for the experimental part: Biological Assay—Stimulation of Human STING Signaling in THP1 Cell Line
Compounds were tested for their STING activation potential using human THP1-Blue™ ISG SEAP based reporter cell line (Invivogen). Briefly, THP1-Blue ISG cells (100,000 cells/well) in 96 well plate were treated with varying concentrations of test and reference compounds and incubated at 37° C. with 5% CO2 for 18-20 hours. The control untreated cells were also set up. Post incubation, the cell supernatant was tested for SEAP (Secreted Embryonic Alkaline Phosphatase) activity using the QuantiBlue™ substrate reagent (Invivogen). The formation of blue coloured product was quantified by measuring absorbance at wavelength of 620 nm using PheraStar/Tecan reader. The average of duplicate readouts for each data point was plotted in GraphPad prism 6 against the concentration of test or reference compound to calculate EC50 value. The fold of SEAP induction or increase in luminescence at different data points was estimated against the un-stimulated cell control set.

T1 sequence (Q86WV6 whole entry R71H/G230A/H232R/R293Q): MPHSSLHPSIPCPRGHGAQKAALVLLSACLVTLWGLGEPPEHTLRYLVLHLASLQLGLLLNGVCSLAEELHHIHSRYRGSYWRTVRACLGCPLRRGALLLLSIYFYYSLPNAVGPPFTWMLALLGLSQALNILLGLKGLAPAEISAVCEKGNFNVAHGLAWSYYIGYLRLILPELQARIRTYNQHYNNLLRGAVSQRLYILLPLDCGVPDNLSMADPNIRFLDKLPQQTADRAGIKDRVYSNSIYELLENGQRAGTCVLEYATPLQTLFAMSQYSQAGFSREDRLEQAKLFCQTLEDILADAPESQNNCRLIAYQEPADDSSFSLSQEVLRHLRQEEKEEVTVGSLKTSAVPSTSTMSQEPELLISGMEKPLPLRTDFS

Compound `CCOC(=O)c1cc(OCC(COc2cc(C(=O)OCC)cc([N+](=O)[O-])c2Cl)N2CCOCC2)c(Cl)c([N+](=O)[O-])c1` had a ring closure, crude yield in series [1] (the molecule shown is the open-chain precursor, EtOH/THF 7:1, 156.5 mM, 110.0 °C) of 88%.

As for `CCOC(=O)c1cc(OCCCOc2cc(C(=O)OC(C)(C)C)cc([N+](=O)[O-])c2Cl)c(Cl)c([N+](=O)[O-])c1`, the ring closure, isolated yield in series [2] is 90%.

Turning to `CCOC(=O)c1cc(OCCCOc2cc(C(N)=O)cc([N+](=O)[O-])c2Cl)c(Cl)c([N+](=O)[O-])c1`, the ring closure, crude yield in series [1] (the molecule shown is the open-chain precursor, EtOH/THF 3:1, 99.5 mM, 120.0 °C) came out at 73%.

`CCOC(=O)c1cc(OC[C@H](COc2cc(C(=O)OC(C)(C)C)cc([N+](=O)[O-])c2Cl)N2C3CCC2COC3)c(Cl)c([N+](=O)[O-])c1` yielded a ring closure, crude yield in series [1] (the molecule shown is the open-chain precursor, EtOH, 121.0 mM, 105.0 °C) of 89.8%.

As for `CCn1nc(C)cc1C(=O)Nc1nc2cc(C(N)=O)cc3c2n1C/C=C/Cn1c(NC(=O)c2cc(C)nn2CC)nc2cc(C(=O)NCCCc4nnn[nH]4)cc(c21)OCCCO3` [Compound 3, (E)-N-(3-(1H-tetrazol-5-yl)propyl)-1,15-bis(1-ethyl-3-methyl-1H-pyrazole-5-carboxamido)-8,9,16,19-tetrahydro-7H-6,10-dioxa-2,14,15a,19a-tetraazacyclopentadeca[3,2,1-cd:8,9,10-c′d′]diindene-4,12-dicarboxamide sodium salt], the solubility at 24 h in series [3] came out at 928 µM. Further, the EC50 on Human STING lay in the range of 1 to 10 nM.

For the compound `CCn1nc(C)cc1C(=O)Nc1nc2cc(C(N)=O)cc3c2n1C/C=C/Cn1c(NC(=O)c2cc(C)nn2CC)nc2cc(C(=O)NCCc4nnn[nH]4)cc(c21)OCCCO3` [Compound 4, (E)-N-(2-(1H-tetrazol-5-yl)ethyl)-1,15-bis(1-ethyl-3-methyl-1H-pyrazole-5-carboxamido)-8,9,16,19-tetrahydro-7H-6,10-dioxa-2,14,15a,19a-tetraazacyclopentadeca[3,2,1-cd:8,9,10-c′d′]diindene-4,12-dicarboxamide], the solubility at 24 h in series [3] stood at 149 µM (≈ 126 µg/mL). The same compound yielded a 50% effective concentration (EC50) on Human STING of 1 to 10 nM.

Take `CCn1nc(C)cc1C(=O)Nc1nc2cc(C(N)=O)cc3c2n1C/C=C/Cn1c(NC(=O)c2cc(C)nn2CC)nc2cc(C(=O)NCCc4ccccc4C(=O)O)cc(c21)OCCCO3` [Compound 5, (E)-2-(2-(12-carbamoyl-1,15-bis(1-ethyl-3-methyl-1H-pyrazole-5-carboxamido)-8,9,16,19-tetrahydro-7H-6,10-dioxa-2,14,15a,19a-tetraazacyclopentadeca[3,2,1-cd:8,9,10-c′d′]diindene-4-carboxamido)ethyl)benzoic acid sodium salt]: the solubility at 24 h in series [3] was determined as 1120 µM. The same compound displayed an EC50 on Human STING of 1 to 10 nM.

In the case of `CCn1nc(C)cc1C(=O)Nc1nc2cc(C(N)=O)cc3c2n1C/C=C/Cn1c(NC(=O)c2cc(C)nn2CC)nc2cc(C(=O)NCc4ncccc4C(=O)O)cc(c21)OCCCO3` [Compound 9, (E)-2-((4-carbamoyl-1,15-bis(1-ethyl-3-methyl-1H-pyrazole-5-carboxamido)-8,9,16,19-tetrahydro-7H-6,10-dioxa-2,14,15a,19a-tetraazacyclopentadeca[3,2,1-cd:8,9,10-c′d′]diindene-12-carboxamido)methyl)nicotinic acid], in series [3], the solubility at 24 h turned out to be 100 µM (≈ 88.4 µg/mL). Besides, the EC50 at Human STING was in the range of 11 to 100 nM.

For the compound `CCn1nc(C)cc1C(=O)Nc1nc2cc(C(N)=O)cc3c2n1C/C=C/Cn1c(NC(=O)c2cc(C)nn2CC)nc2cc(C(=O)NCCCn4nn[nH]c4=O)cc(c21)OCCCO3` [Compound 10, (E)-1,15-bis(1-ethyl-3-methyl-1H-pyrazole-5-carboxamido)-N-(3-(5-oxo-4,5-dihydro-1H-tetrazol-1-yl)propyl)-8,9,16,19-tetrahydro-7H-6,10-dioxa-2,14,15a,19a-tetraazacyclopentadeca[3,2,1-cd:8,9,10-c′d′]diindene-4,12-dicarboxamide], in series [3], the solubility at 24 h was found to be 631 µM (≈ 552 µg/mL). The same compound showed an EC50 on Human STING of 11 to 100 nM.

As for `CCn1nc(C)cc1C(=O)Nc1nc2cc(C(N)=O)cc3c2n1C/C=C/Cn1c(NC(=O)c2cc(C)nn2CC)nc2cc(C(=O)NCCCc4noc(=O)[nH]4)cc(c21)OCCCO3` [Compound 11, (E)-1,15-bis(1-ethyl-3-methyl-1H-pyrazole-5-carboxamido)-N-(3-(5-oxo-4,5-dihydro-1,2,4-oxadiazol-3-yl)propyl)-8,9,16,19-tetrahydro-7H-6,10-dioxa-2,14,15a,19a-tetraazacyclopentadeca[3,2,1-cd:8,9,10-c′d′]diindene-4,12-dicarboxamide], in series [3], the solubility at 24 h was 98 µM (≈ 85.7 µg/mL). This compound had an EC50 at Human STING of 1 to 10 nM.

In the case of `CCn1nc(C)cc1C(=O)Nc1nc2cc(C(N)=O)cc3c2n1C/C=C/Cn1c(NC(=O)c2cc(C)nn2CC)nc2cc(C(=O)NCCCc4nnn[nH]4)cc(c21)OC[C@@H](N1C2CCC1COC2)CO3` [Compound 16, (8S,E)-N4-(3-(1H-tetrazol-5-yl)propyl)-8-(3-oxa-8-azabicyclo[3.2.1]octan-8-yl)-1,15-bis(1-ethyl-3-methyl-1H-pyrazole-5-carboxamido)-8,9,16,19-tetrahydro-7H-6,10-dioxa-2,14,15a,19a-tetraazacyclopentadeca[3,2,1-cd:8,9,10-c′d′]diindene-4,12-dicarboxamide sodium salt], the solubility at 24 h in series [3] came to 243 µM. The same compound gave a half-maximal effective concentration (EC50) at Human STING of 1 to 10 nM.

Consider `CCn1nc(C)cc1C(=O)Nc1nc2cc(C(N)=O)cc3c2n1C/C=C/Cn1c(NC(=O)c2cc(C)nn2CC)nc2cc(C(=O)NCCCn4cc(C(=O)O)cn4)cc(c21)OC[C@@H](N1C2CCC1COC2)CO3` [Compound 18, 1-(3-((8S,E)-8-(3-oxa-8-azabicyclo[3.2.1]octan-8-yl)-12-carbamoyl-1,15-bis(1-ethyl-3-methyl-1H-pyrazole-5-carboxamido)-8,9,16,19-tetrahydro-7H-6,10-dioxa-2,14,15a,19a-tetraazacyclopentadeca[3,2,1-cd:8,9,10-c′d′]diindene-4-carboxamido)propyl)-1H-pyrazole-4-carboxylic acid sodium salt], for which the solubility at 24 h in series [3] was 250 µM. The same compound returned an EC50 at Human STING of 1 to 10 nM.

“diethyl (E)-7-(8-oxa-3-azabicyclo[3.2.1]octan-3-yl)-1,13-dinitro-7,8,14,15,18,19-hexahydro-6H-dibenzo[b,j][1,12]dioxa[4,9]diazacyclopentadecine-3,11-dicarboxylate” returned a ring closure, crude yield in series [1] (EtOH/THF 7.4:1, 148.0 mM, 110.0 °C) of 88%.
